In paper PMC9719519, “Non-classical ferroptosis inhibition by a small molecule targeting PHB2” (Nature Communications, 2022):

Tests used:
Assay in all cases: biochemical
Parameters in all cases: Eurofins recombinant human kinase profiling, remaining kinase activity as % of control, 10 uM ATP
Settings in all cases: ATP 10 uM; read-out: %Ctrl@10 μM
FGFR3(h) = FGFR3(h) (Homo sapiens, UniProt P22607)
How it was run: (§1)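 Activity measured in a commercial panel of 401 recombinant human protein kinases run as a kinase profiling service.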

TLK1(h) = TLK1(h) (Homo sapiens, UniProt Q9UKI8)
TLK1(h), sequence (Q9UKI8 whole entry): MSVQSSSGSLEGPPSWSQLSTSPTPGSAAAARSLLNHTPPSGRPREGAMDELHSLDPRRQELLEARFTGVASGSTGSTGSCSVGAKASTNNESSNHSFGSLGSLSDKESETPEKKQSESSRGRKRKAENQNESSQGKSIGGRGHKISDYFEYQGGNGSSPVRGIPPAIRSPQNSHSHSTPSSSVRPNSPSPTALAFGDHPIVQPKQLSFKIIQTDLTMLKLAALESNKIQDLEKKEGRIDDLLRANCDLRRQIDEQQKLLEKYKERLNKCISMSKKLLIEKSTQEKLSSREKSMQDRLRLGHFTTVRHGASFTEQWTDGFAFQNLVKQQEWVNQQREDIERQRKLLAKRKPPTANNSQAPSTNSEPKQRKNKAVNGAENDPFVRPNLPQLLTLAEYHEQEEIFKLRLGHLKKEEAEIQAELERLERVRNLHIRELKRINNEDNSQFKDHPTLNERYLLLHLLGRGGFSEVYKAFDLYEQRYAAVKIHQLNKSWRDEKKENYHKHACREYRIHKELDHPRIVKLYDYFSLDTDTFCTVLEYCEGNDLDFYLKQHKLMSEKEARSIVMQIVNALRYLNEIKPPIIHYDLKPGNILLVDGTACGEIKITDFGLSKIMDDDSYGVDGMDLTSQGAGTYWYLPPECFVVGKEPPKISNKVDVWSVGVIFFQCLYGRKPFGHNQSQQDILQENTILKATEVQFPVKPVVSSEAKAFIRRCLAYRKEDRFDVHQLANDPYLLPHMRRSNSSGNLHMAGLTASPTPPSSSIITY
How it was run: as §1

CDK6/cyclinD3(h) = CDK6/cyclinD3(h) (Homo sapiens, UniProt Q00534)
CDK6/cyclinD3(h), sequence (Q00534 whole entry): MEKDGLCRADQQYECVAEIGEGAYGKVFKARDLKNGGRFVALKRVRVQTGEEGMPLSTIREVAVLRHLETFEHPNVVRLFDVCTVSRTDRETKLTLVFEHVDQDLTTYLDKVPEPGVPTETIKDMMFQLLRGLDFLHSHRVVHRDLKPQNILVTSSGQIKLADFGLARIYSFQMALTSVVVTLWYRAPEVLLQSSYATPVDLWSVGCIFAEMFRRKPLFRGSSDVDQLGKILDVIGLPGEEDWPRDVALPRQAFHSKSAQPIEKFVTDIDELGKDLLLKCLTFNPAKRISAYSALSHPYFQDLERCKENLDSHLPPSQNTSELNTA
CDK6/cyclinD3(h), sequence (P30281 whole entry partner): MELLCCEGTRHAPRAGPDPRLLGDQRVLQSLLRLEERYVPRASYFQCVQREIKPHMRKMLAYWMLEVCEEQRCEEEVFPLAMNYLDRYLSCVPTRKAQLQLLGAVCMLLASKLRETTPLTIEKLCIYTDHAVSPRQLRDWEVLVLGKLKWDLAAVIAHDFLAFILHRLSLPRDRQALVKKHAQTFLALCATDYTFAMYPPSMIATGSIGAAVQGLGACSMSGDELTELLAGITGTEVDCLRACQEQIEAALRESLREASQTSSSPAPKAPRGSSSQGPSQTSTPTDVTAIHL
How it was run: as §1

SGK2(h) = SGK2(h) (Homo sapiens, UniProt Q9HBY8)
How it was run: as §1

TAO3(h) = molecular target: T1, TAO3(h) (Homo sapiens, UniProt Q9H2K8)
T1 construct: gene TAOK3
How it was run: as §1

p70S6K(h) = molecular target: T2, p70S6K(h) (Homo sapiens, UniProt P23443)
T2 construct: gene RPS6KB1
T2 sequence (P23443 whole entry): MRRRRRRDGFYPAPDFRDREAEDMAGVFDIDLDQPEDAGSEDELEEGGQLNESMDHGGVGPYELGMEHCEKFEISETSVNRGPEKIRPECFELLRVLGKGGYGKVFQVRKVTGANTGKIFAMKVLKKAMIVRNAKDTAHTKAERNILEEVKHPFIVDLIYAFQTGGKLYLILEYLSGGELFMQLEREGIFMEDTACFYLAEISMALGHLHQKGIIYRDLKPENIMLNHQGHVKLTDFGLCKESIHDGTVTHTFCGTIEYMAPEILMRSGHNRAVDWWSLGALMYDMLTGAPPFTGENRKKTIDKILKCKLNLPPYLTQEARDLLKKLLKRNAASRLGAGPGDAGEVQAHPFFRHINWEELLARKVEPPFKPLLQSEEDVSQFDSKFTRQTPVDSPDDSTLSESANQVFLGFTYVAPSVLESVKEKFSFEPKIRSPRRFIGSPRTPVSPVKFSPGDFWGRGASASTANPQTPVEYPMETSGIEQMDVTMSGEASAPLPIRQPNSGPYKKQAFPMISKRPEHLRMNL
How it was run: as §1

TLK2(h) = TLK2(h) (Homo sapiens, UniProt Q86UE8)
How it was run: as §1

STK32B(h) = STK32B(h) (Homo sapiens, UniProt Q9NY57)
How it was run: as §1

DRAK1(h) = molecular target: T3, DRAK1(h) (Homo sapiens, UniProt Q9UEE5)
T3 construct: gene STK17A
T3 sequence (Q9UEE5 whole entry): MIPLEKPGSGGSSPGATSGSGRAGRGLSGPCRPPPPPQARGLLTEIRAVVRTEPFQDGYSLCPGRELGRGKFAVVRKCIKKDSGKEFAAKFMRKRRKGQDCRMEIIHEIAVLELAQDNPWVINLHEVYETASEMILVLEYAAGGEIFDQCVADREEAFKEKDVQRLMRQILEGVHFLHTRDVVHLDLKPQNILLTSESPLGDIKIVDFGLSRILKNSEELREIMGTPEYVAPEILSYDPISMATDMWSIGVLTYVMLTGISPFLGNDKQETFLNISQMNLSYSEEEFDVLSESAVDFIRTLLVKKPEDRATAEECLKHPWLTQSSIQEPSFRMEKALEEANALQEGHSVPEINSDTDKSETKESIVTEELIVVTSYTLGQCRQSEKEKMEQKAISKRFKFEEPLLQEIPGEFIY
How it was run: as §1

VRK2(h) = VRK2(h) (Homo sapiens, UniProt Q86Y07)
How it was run: as §1

PKCδ(h) = molecular target: T4, PKCδ(h) (Homo sapiens, UniProt Q05655)
T4 construct: gene PRKCD
T4 sequence (Q05655 whole entry): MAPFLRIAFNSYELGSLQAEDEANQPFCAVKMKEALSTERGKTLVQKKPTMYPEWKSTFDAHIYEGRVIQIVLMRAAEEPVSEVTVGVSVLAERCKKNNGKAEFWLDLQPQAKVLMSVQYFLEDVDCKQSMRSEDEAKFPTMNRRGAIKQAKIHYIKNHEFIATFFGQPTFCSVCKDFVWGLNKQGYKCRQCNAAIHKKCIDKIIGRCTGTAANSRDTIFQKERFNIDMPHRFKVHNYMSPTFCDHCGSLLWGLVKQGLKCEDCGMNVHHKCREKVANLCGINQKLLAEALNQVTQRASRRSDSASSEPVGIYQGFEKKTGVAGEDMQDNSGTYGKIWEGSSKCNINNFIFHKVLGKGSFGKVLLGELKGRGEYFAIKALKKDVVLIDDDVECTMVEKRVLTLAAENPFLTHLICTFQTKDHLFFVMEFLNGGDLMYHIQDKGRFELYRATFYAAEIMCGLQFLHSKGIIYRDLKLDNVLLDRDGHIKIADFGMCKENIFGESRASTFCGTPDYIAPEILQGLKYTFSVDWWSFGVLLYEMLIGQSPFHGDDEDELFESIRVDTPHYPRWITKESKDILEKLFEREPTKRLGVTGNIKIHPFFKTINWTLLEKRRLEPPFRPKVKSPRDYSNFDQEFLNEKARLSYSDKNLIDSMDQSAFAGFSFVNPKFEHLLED
How it was run: as §1

STK32A(h) = STK32A(h) (Homo sapiens, UniProt Q8WU08)
How it was run: as §1

Flt3(D835Y)(h) = Flt3(D835Y)(h) (Homo sapiens, UniProt P36888, D835Y)
How it was run: as §1

Itk(h) = Itk(h) (Homo sapiens, UniProt Q08881)
How it was run: as §1

PKD2(h) = molecular target: T5, PKD2(h) (Homo sapiens, UniProt Q9BZL6)
T5 construct: gene PRKD2
How it was run: as §1

WNK4(h) = WNK4(h) (Homo sapiens, UniProt Q96J92)
How it was run: as §1

CSK(h) = CSK(h) (Homo sapiens, UniProt P41240)
How it was run: as §1

MuSK(h) = MuSK(h) (Homo sapiens, UniProt O15146)
How it was run: as §1

PAK1(h) = PAK1(h) (Homo sapiens, UniProt Q13153)
How it was run: as §1

MAK(h) = MAK(h) (Homo sapiens, UniProt P20794)
How it was run: as §1

EphA7(h) = EphA7(h) (Homo sapiens, UniProt Q15375)
EphA7(h), sequence (Q15375 whole entry): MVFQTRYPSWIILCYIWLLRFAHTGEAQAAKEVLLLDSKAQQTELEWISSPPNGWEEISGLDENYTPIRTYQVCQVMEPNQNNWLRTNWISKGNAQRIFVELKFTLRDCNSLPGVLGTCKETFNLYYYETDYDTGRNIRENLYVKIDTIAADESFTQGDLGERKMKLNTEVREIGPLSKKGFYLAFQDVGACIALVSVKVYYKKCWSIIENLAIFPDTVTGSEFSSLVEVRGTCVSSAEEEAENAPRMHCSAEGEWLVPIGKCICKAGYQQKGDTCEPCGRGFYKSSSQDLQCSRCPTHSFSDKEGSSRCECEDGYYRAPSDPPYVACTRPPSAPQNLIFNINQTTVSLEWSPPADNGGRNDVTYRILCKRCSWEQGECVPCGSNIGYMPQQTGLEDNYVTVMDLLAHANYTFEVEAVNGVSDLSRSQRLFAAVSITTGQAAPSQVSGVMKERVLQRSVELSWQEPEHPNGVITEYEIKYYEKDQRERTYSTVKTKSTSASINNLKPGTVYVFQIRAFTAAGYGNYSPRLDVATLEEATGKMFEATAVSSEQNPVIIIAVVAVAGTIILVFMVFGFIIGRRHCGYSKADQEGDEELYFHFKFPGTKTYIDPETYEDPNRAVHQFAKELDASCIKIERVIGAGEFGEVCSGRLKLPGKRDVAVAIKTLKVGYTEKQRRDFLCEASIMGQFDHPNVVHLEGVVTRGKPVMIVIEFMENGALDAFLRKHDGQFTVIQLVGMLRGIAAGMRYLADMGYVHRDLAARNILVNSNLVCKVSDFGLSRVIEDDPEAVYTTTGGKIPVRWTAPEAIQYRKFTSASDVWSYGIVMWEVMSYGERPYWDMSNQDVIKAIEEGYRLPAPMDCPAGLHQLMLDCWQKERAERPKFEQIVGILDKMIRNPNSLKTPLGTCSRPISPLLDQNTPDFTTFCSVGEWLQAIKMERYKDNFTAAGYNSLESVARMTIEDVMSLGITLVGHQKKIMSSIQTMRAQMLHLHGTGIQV
How it was run: as §1

PAK6(h) = PAK6(h) (Homo sapiens, UniProt Q9NQU5)
How it was run: as §1

PKCγ(h) = molecular target: T6, PKCγ(h) (Homo sapiens, UniProt P05129)
T6 construct: gene PRKCG
How it was run: as §1

`C1=C(c2nc(-c3cnn(C4CCNCC4)c3)cn3cc(-c4ccccc4)nc23)CCOC1` [YL-939] was tested, and the remaining activity at 10 µM (FGFR3(h)) was 83%, the remaining activity at 10 µM (TLK1(h)) was 71% and the remaining activity at 10 µM (CDK6/cyclinD3(h)) was 94%. It also gave a remaining activity at 10 µM (SGK2(h)) of 96%, a remaining activity at 10 µM (TAO3(h)) of 102% and a remaining activity at 10 µM (p70S6K(h)) of 61%. It also gave a remaining activity at 10 µM (TLK2(h)) of 88%, a remaining activity at 10 µM (STK32B(h)) of 105% and a remaining activity at 10 µM (DRAK1(h)) of 60%. For the same compound, the remaining activity at 10 µM (VRK2(h)) was 92%, the remaining activity at 10 µM (PKCδ(h)) was 81% and the remaining activity at 10 µM (STK32A(h)) was 111%. The remaining activity at 10 µM (Flt3(D835Y)(h)) was 95%, the remaining activity at 10 µM (Itk(h)) was 106% and the remaining activity at 10 µM (PKD2(h)) was 89%. It also gave a remaining activity at 10 µM (WNK4(h)) of 102%, a remaining activity at 10 µM (CSK(h)) of 105% and a remaining activity at 10 µM (MuSK(h)) of 88%. It also gave a remaining activity at 10 µM (PAK1(h)) of 85%, a remaining activity at 10 µM (MAK(h)) of 74% and a remaining activity at 10 µM (EphA7(h)) of 99%. It also gave a remaining activity at 10 µM (PAK6(h)) of 65% and a remaining activity at 10 µM (PKCγ(h)) of 96%.
